ChEMBL document CHEMBL4396888, “Design and Synthesis of Potent, Selective Inhibitors of Protein Arginine Methyltransferase 4 against Acute Myeloid Leukemia” (J Med Chem, 2019)
pIC50: −log10 of the molar value.

What was measured:
[1] = molecular target: T1, Histone-arginine methyltransferase CARM1 (Homo sapiens, UniProt Q86X55); assay: Inhibition of PRMT4 (unknown origin) using histone H3 (21 to 44 residues) as substrate measured after 60 mins in presence of SAM by AlphaLisa assay
T1 sequence (Q86X55 whole entry): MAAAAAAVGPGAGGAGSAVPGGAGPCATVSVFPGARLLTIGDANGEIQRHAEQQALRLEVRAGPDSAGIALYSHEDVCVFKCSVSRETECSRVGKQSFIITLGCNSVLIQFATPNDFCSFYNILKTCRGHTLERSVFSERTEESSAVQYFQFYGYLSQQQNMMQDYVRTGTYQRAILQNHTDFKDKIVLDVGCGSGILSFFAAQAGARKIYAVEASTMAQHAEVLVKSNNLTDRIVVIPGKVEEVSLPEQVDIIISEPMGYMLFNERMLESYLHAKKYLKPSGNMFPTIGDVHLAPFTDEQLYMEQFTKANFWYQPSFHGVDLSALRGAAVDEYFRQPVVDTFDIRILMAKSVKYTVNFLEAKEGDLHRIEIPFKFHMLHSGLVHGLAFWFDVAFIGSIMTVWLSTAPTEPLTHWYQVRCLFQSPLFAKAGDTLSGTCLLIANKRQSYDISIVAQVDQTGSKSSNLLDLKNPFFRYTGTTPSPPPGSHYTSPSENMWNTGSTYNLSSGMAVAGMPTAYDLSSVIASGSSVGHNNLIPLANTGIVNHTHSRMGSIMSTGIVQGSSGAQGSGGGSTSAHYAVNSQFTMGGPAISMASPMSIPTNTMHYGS

[2] = molecular target: Protein arginine N-methyltransferase 6 (Homo sapiens, UniProt Q96LA8); assay: Inhibition of PRMT6 (unknown origin) preincubated for 15 mins followed by substrate addition and measured after 60 mins by AlphaLisa assay
Protein arginine N-methyltransferase 6, sequence (Q96LA8 whole entry, the tested form may be a part): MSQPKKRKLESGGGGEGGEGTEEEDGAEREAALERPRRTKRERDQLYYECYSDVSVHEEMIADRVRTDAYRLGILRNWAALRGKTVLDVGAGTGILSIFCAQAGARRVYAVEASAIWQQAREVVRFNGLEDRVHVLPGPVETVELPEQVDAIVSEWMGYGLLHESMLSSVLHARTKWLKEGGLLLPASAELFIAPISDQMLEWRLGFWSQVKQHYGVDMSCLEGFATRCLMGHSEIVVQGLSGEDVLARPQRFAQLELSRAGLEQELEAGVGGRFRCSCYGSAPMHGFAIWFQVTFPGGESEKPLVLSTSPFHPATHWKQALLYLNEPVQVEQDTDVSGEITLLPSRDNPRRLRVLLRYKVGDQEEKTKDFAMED

[3] = molecular target: Protein arginine N-methyltransferase 8 (Homo sapiens, UniProt Q9NR22); assay: Inhibition of PRMT8 (unknown origin) using biotinylated histone H4 (1 to 24 residues) as substrate in presence of [3H]SAM by scintillation proximity assay
Protein arginine N-methyltransferase 8, sequence (Q9NR22 whole entry, the tested form may be a part): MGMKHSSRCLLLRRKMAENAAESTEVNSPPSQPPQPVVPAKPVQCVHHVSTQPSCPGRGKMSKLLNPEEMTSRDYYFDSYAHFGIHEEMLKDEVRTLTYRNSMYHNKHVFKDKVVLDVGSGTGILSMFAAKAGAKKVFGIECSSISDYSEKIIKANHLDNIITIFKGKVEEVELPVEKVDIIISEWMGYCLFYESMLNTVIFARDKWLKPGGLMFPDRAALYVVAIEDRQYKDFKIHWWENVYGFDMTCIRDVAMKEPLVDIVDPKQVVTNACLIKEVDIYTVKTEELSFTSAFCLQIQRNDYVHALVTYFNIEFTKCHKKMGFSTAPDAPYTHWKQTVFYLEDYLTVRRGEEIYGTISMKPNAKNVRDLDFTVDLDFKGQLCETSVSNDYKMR

[4] = molecular target: T1, Histone-arginine methyltransferase CARM1; assay: Inhibition of PRMT4 (unknown origin) using biotinylated […] (1 to 24 residues) as substrate in presence of [3H]SAM by scintillation proximity assay

| pIC50 [1] | Compound | further results |
| --- | --- | --- |
| 5.50 | CNCC(O)CN1CCCc2ccccc2C1 (stereo unspecified) |  |
| 7.37 | CNCC(O)CN1CCc2c(cccc2OCc2cccc(-c3nccs3)c2)C1 (racemic) |  |
| 5.58 | CNCC(O)CN1CCc2c(cccc2Oc2ccc(F)cc2)C1 (stereo unspecified) |  |
| 5.08 | CNCC(O)CN1CCc2ccccc2CC1 (stereo unspecified) |  |
| 6.11 | CNCC(O)CN1CCCc2c(Br)cccc2C1 (stereo unspecified) |  |
| 5.71 | CNCC(O)CN1CCc2c(cccc2OCc2ccc(C(C)(C)C)cc2)C1 (stereo unspecified) |  |
| 5.70 | CNCC(O)CN1CCc2c(cccc2Oc2cc(C)cc(C)c2)C1 (stereo unspecified) |  |
| 7.43 | CNCC(O)CN1CCc2c(cccc2OCc2ccc(Cl)cc2)C1 (stereo unspecified) |  |
| 6.05 | CNCC(O)CN1CCc2cc(Oc3ccccc3)ccc2C1 (stereo unspecified) |  |
| 6.89 | CNCC(O)CN1CCc2c(Br)cccc2C1 (stereo unspecified) | pIC50 [2]: 4.39 |
| 5.35 | CNCC(O)CN1CCc2cc(Br)ccc2C1 (stereo unspecified) |  |
| 7.49 | CNCCN1CCC(OCc2ccccc2)CC1 |  |
|  | CC(C)Oc1ccc(-c2c[nH]cc2CN(C)CCN)cc1 | pIC50 [3]: 6.92 to 8.40; pIC50 [4]: 6.92 to 8.40 |
| 6.52 | CNCC(O)CN1CCc2c(cccc2OCc2ccc(C#N)cc2)C1 (stereo unspecified) |  |
| 6.64 | CNCC(O)CN1CCc2c(cccc2OCc2ccc(F)cc2)C1 (stereo unspecified) |  |
| 5.42 | CNCC(O)CN1CCc2c(cccc2NC(=O)Nc2ccccc2)C1 (stereo unspecified) |  |
| 6.92 | CNCC(O)CN1CCc2c(cccc2OCc2ccc(-c3ccccc3)cc2)C1 (stereo unspecified) |  |
| 5.64 | CNCC(O)CN1CCc2c(cccc2Oc2cccc(F)c2)C1 (stereo unspecified) |  |
| 6.11 | CNCC(O)CN1CCc2cccc(Br)c2C1 (stereo unspecified) |  |
| 5.64 | CNCC(O)CN1CCc2c(cccc2Oc2ccc(C#N)cc2)C1 (stereo unspecified) |  |
| 5.10 | CNCC(O)CN1CCc2c(cccc2C(=O)Nc2ccccc2)C1 (stereo unspecified) |  |

| pIC50 [1] | Compound | further results |
| --- | --- | --- |
| 6.57 | CNCC(O)CN1CCc2c(cccc2Oc2ccccc2)C1 (stereo unspecified) |  |
| 6.60 | CNCC(O)CN1CCc2c(cccc2OCc2ccccc2F)C1 (stereo unspecified) |  |
| 5.21 | CNCC(O)CN1CCc2c(cccc2NC(=O)c2ccccc2)C1 (stereo unspecified) |  |
| 6.33 | CNCC(O)CN1CCc2c(cccc2-c2ccccc2)C1 (stereo unspecified) |  |
| 5.69 | CNCC(O)CN1CCc2c(cccc2Oc2ccc(F)c(Cl)c2)C1 (stereo unspecified) |  |
| 5.27 | CNCC(O)CN1CCc2ccccc2C1 (stereo unspecified) |  |
| 5.28 | CNCC(O)CN1CCc2ccc(Br)cc2C1 (stereo unspecified) |  |
| 5.61 | CNCC(O)CN1Cc2ccccc2C1 (stereo unspecified) |  |
| 5.68 | CNCC(O)CN1CCc2c(cccc2Oc2ccccc2F)C1 (stereo unspecified) |  |
| 6.28 | CNCC(O)CN1CCc2c(cccc2OCc2cccc(F)c2)C1 (stereo unspecified) |  |
| < 5.00 | CNCC(O)CN1CCOc2ccccc2C1 (stereo unspecified) |  |
| 5.46 | CNCC(O)CN1CCc2c(cccc2Oc2cccc(N)c2)C1 (stereo unspecified) |  |
| 6.55 | CNCC(O)CN1CCc2c(cccc2Oc2ccc(-c3nccs3)cc2)C1 (stereo unspecified) |  |
| 6.78 | CNCC(O)CN1CCc2c(cccc2OCc2ccccc2)C1 (stereo unspecified) |  |
| 5.93 | CNCC(O)CN1CCc2c(cccc2Oc2ccc(Cl)cc2)C1 (stereo unspecified) |  |
| 5.68 | CNCC(O)CN1CCc2c(cccc2Nc2ccccc2)C1 (stereo unspecified) |  |
| 6.18 | CNCC(O)CN1CCc2c(cccc2Oc2cccc(-c3nccs3)c2)C1 (stereo unspecified) |  |
| 5.67 | CNCC(O)CN1CCc2c(cccc2C(=O)NCc2ccccc2)C1 (stereo unspecified) |  |
| 5.37 | CNCC(O)CN1CCc2c(cccc2NS(=O)(=O)c2ccccc2)C1 (stereo unspecified) |  |
| 6.46 | CNCC(O)CN1CCc2c(cccc2NCc2ccccc2)C1 (stereo unspecified) |  |
| 6.32 | CNCC(O)CN1CCc2cc(OCc3ccccc3)ccc2C1 (stereo unspecified) |  |

| Compound | pIC50 [1] | further results |
| --- | --- | --- |
| CNCC(O)CN1CCc2c(cccc2OCc2ccc(-c3nccs3)cc2)C1 (racemic) | 7.51 |  |
| CNC[C@H](O)CN1CCc2c(cccc2OCc2ccc(-c3nccs3)cc2)C1 | 7.00 |  |
